Laboratory results reported in patent US12358949B2, “Defensin fragments for use in therapy or prophylaxis” (priority 2019, dated 2025).
Entries after “also recorded” stand apart in the source; their conditions may differ. Where two headings read alike, the source gives them in different places. Where a SMILES comes first, the peptide text is derived from it. Bridges are numbered along the chain shown (N, C = ends).

Tests used:
Format in all cases: cell-based
commensal bacteria = assay: Radial diffusion assay, HD-5 fragments; details: 4 μg fragment, 2 μg full-length peptide; commensal bacteria (FIG. 3)
Protocol: In the RDA 2 μg of the full length and 4 μg of each fragment were used. An inhibition zone greater than 5 mm was determined as high activity, between 2.5 and 5 mm as low activity and 2.5 mm were the diameter of the punched well and therefore no activity.
(§1) Antimicrobial activity of all peptides was tested with a modified radial diffusion assay from Lehrer et al^12 Shortly described, log-phase bacteria grew (anaerobic bacteria with AnaeroGen, Oxoid in anaerobic jars) in liquid tryptic soy broth (TSB) (Becton Dickinson). After several wash steps in 10 mM sodium phosphate buffer pH 7.4, 4×10^6 cfu/ml was used per assay. To measure the antibacterial effect of the identified peptide fragments, the bacteria were incubated in 10 mM sodium phosphate (pH 7.4) containing 0.3 mg/ml TSB powder and 1% (w/v) low EEO-agarose (Applichem). Peptide fragments were then pipetted into punched wells and allowed to diffuse for 3 hours at 37° C. After that a nutrient rich gel with 6% TSB (w/v) and 1% agarose in 10 mM sodium phosphate buffer was poured on top of the first gel. After 24 hours the inhibition zones were measured. […] All experiments were carried out at least three times.

E. coli MC1000 = assay: Transmission electron microscopy of peptide treated bacteria; details: 200 μg/ml, 2 hours
Protocol: Transmission electron microcscopy experiments were performed as previously described^11. 6×10^8 cfu E. coli MC1000 was incubated with 200 μg/ml of each peptide for 2 hours. Bacteria were fixed in Karnovsky's fixative, embedded in agarose, coagulated, cut in small blocks and fixed again in Karnovsky's solution. After post-fixation and embedding in glycid ether blocks were cut using an ultra-microtome. Sections (30 nm) were mounted on copper grids and analyzed using a Zeiss LIBRA 120 transmissions electron microscope.

A. baumannii 4-MRGN = system: A. baumannii 4-MRGN
Protocol: (§2) The tested bacteria were incubated overnight in 1×TSB broth, centrifuged and washed with 10 mM sodium phosphate buffer containing 1% (w/v) TSB broth. 5×10^5 cfu/ml bacteria were mixed with different peptide concentrations in 10 mM sodium phosphate buffer with 1% (w/v) TSB (final volume 100 μl) and incubated for 2 hours at 37° C. Afterwards we added 100 μl 2×TSB broth and we measured the optical density at 600 nm (Spark 10M, Tecan, Austria). Bacterial growth was monitored for 12 hours, growing at 37° C. with shaking during the measurements each 30 minutes, except for Akkermansia muciniphila which were incubated at 37° C. in an anaerobic jar and growth was measured after 72 hours.

E. faecium 475747 = system: E. faecium 475747
Protocol: as §2

P. aeruginosa ATCC 27853 = system: P. aeruginosa ATCC 27853
Protocol: as §2

pathogenic bacteria = assay: Radial diffusion assay, HD-5 fragments; details: pathogenic Gram-positive and Gram-negative bacteria (FIG. 4)
Protocol: A heat map system with high activity (inhibition zone in the RDA>5 mm), low activity (2.5 to 5 mm) and no activity (2.5 mm) was used.
as §1

A. baumannii DSM 30007 = system: A. baumannii DSM 30007
Protocol: as §2

E. coli JM83 = system: E. coli JM83
Protocol: as §2

E. faecium DSM 20477 = system: E. faecium DSM 20477
Protocol: as §2

K. pneumoniae 3-MRGN = details: K. pneumoniae 3-MRGN; after 12 hours
Protocol: as §2

K. pneumoniae DSM 30104 = system: K. pneumoniae DSM 30104
Protocol: as §2

P. aeruginosa 4-MRGN = system: P. aeruginosa 4-MRGN
Protocol: as §2

P. aeruginosa PAO1 = system: P. aeruginosa PAO1
Protocol: as §2

P. aeruginosa XPAT1 = system: P. aeruginosa XPAT1
Protocol: as §2

P. aeruginosa XPAT2 = system: P. aeruginosa XPAT2
Protocol: as §2

S. aureus ATCC 25923 = system: S. aureus ATCC 25923
Protocol: as §2

S. aureus USA300 = system: S. aureus USA300
Protocol: as §2

Y. enterocolitica = system: Y. enterocolitica
Protocol: as §2

C. albicans 529L = system: C. albicans 529L

C[C@H](N)C(=O)N[C@H](C(=O)N[C@@H](CS)C(=O)N[C@@H](Cc1ccc(O)cc1)C(=O)N[C@@H](CS)C(=O)N[C@@H](CCCNC(=N)N)C(=O)N[C@H](C(=O)NCC(=O)N[C@@H](CCCNC(=N)N)C(=O)N[C@@H](CS)C(=O)N[C@@H](C)C(=O)N[C@H](C(=O)N[C@@H](CCCNC(=N)N)C(=O)O)[C@@H](C)O)[C@@H](C)O)[C@@H](C)O [HD-51-13] (H-ATCYCRTGRCATR-OH; N-terminus and C-terminus assumed) was tested, and the “antimicrobial activity in radial diffusion assay” value (“antimicrobial activity” below) (commensal bacteria) was “exhibited antimicrobial properties, albeit to a lesser extent than HD-51-9” and the “phenotype of peptide treated bacteria (TEM)” value (E. coli MC1000) was “bigger aggregation inside the bacteria”.

For CC[C@H](C)[C@H](NC(=O)[C@H](CCC(=O)O)NC(=O)[C@H](CS)NC(=O)[C@@H](NC(=O)CNC(=O)[C@H](CO)NC(=O)[C@H](CC(C)C)NC(=O)[C@H](CO)NC(=O)[C@H](CCC(=O)O)NC(=O)[C@H](CCCNC(=N)N)NC(=O)[C@@H](NC(=O)[C@H](C)NC(=O)[C@H](CS)NC(=O)[C@H](CCCNC(=N)N)NC(=O)CNC(=O)[C@@H](N)[C@@H](C)O)[C@@H](C)O)C(C)C)C(=O)N[C@@H](CO)C(=O)NCC(=O)N[C@@H](CCCNC(=N)N)C(=O)N[C@@H](CC(C)C)C(=O)N[C@@H](Cc1ccc(O)cc1)C(=O)N[C@@H](CCCNC(=N)N)C(=O)N[C@@H](CC(C)C)C(=O)N[C@@H](CS)C(=O)N[C@@H](CS)C(=O)N[C@@H](CCCNC(=N)N)C(=O)O [HD-57-32] (H-TGRCATRESLSGVCEISGRLYRLCCR-OH; N-terminus and C-terminus assumed), the MIC (A. baumannii 4-MRGN; 4-MRGN, 12 h) was 25 µM, the MIC (A. baumannii 4-MRGN; A. baumannii 4-MRGN, after 12 hours, listed as 7-32) was 72.25 µg/mL and the MIC (E. faecium 475747; 475747, 12 h) was 25 µM. It also gave an MIC (E. faecium 475747; E. faecium 475747, after 12 hours, listed as 7-32) of 72.2 µg/mL, an MIC (P. aeruginosa ATCC 27853; ATCC 27853, 12 h) of 50 µM and an MIC (P. aeruginosa ATCC 27853; P. aeruginosa ATCC 27853, after 12 hours, listed as 7-32) of 144.5 µg/mL. For the same compound, the “antimicrobial activity” value (commensal bacteria) was “exhibited antimicrobial properties, albeit to a lesser extent than HD-51-9” and the “antimicrobial activity” value (pathogenic bacteria) was “strong effect on the growth of every tested bacterium”.

For CC[C@H](C)[C@H](NC(=O)[C@H](CCC(=O)O)NC(=O)[C@H](CS)NC(=O)[C@@H](NC(=O)CNC(=O)[C@H](CO)NC(=O)[C@H](CC(C)C)NC(=O)[C@H](CO)NC(=O)[C@H](CCC(=O)O)NC(=O)[C@H](CCCNC(=N)N)NC(=O)[C@@H](NC(=O)[C@H](C)NC(=O)[C@@H](N)CS)[C@@H](C)O)C(C)C)C(=O)N[C@@H](CO)C(=O)NCC(=O)N[C@@H](CCCNC(=N)N)C(=O)N[C@@H](CC(C)C)C(=O)N[C@@H](Cc1ccc(O)cc1)C(=O)N[C@@H](CCCNC(=N)N)C(=O)N[C@@H](CC(C)C)C(=O)N[C@@H](CS)C(=O)N[C@@H](CS)C(=O)N[C@@H](CCCNC(=N)N)C(=O)O [HD-510-32] (H-CATRESLSGVCEISGRLYRLCCR-OH; N-terminus and C-terminus assumed), the “antimicrobial activity” value (pathogenic bacteria) was “only minimally active or more selective in terms of different strains; also recorded: limited to the two Gram-positive bacteria”.

With CC[C@H](C)[C@H](NC(=O)[C@H](CCC(=O)O)NC(=O)[C@H](CS)NC(=O)[C@@H](NC(=O)CNC(=O)[C@H](CO)NC(=O)[C@H](CC(C)C)NC(=O)[C@H](CO)NC(=O)[C@@H](N)CCC(=O)O)C(C)C)C(=O)N[C@@H](CO)C(=O)NCC(=O)N[C@@H](CCCNC(=N)N)C(=O)N[C@@H](CC(C)C)C(=O)N[C@@H](Cc1ccc(O)cc1)C(=O)N[C@@H](CCCNC(=N)N)C(=O)N[C@@H](CC(C)C)C(=O)N[C@@H](CS)C(=O)N[C@@H](CS)C(=O)N[C@@H](CCCNC(=N)N)C(=O)O [HD-514-32] (H-ESLSGVCEISGRLYRLCCR-OH; N-terminus and C-terminus assumed) the “antimicrobial activity” value (pathogenic bacteria) was “inactive”.

Work on CC[C@H](C)[C@@H]1NC(=O)[C@H](CC(C)C)NC(=O)[C@@H]2CSSC[C@@H]3NC(=O)[C@H](CO)NC(=O)[C@@H](NC(=O)[C@@H](N)C(C)C)CSSC[C@@H](C(=O)N[C@H](C(=O)N[C@@H](CCCNC(=N)N)C(=O)N[C@H](C(=O)O)C(C)C)[C@@H](C)O)NC(=O)[C@H](CSSC[C@H](NC(=O)[C@H](Cc4ccccc4)NC(=O)[C@H](C(C)C)NC(=O)[C@H](CC(C)C)NC(=O)[C@H](CCCNC(=N)N)NC3=O)C(=O)N[C@@H](CCCNC(=N)N)C(=O)N[C@@H](CCCNC(=N)N)C(=O)N[C@@H]([C@@H](C)O)C(=O)N[C@@H](CCC(=O)O)C(=O)N[C@@H](CC(C)C)C(=O)N[C@@H](CCCNC(=N)N)C(=O)N[C@@H](C(C)C)C(=O)NCC(=O)N[C@@H](CC(N)=O)C(=O)N2)NC(=O)[C@H](Cc2ccc(O)cc2)NC(=O)[C@H]([C@@H](C)O)NC(=O)[C@H](Cc2ccccc2)NC(=O)[C@H](CO)NC(=O)[C@H](C(C)C)NC(=O)CNC(=O)CNC1=O [HNP-4fl, reference compound] (H-VCSCRLVFCRRTELRVGNCLIGGVSFTYCCTRV-OH; disulfide 2-30, 4-19, 9-29 (inferred); N-terminus and C-terminus assumed) yielded an MIC (A. baumannii 4-MRGN; 4-MRGN, 12 h) of 12.5 µM, an MIC (A. baumannii 4-MRGN; A. baumannii 4-MRGN, after 12 hours) of 46.4 µg/mL and an MIC (A. baumannii DSM 30007; A. baumannii DSM30007, after 12 hours) of 11.6 µg/mL. The MIC (A. baumannii DSM 30007; DSM 30007, 12 h) was 3.125 µM, the MIC (E. coli JM83; E. coli JM83, after 12 hours) was 46.4 µg/mL and the MIC (E. coli JM83; JM83, 12 h) was 12.5 µM. For the same compound, the MIC (E. faecium 475747; 475747, 12 h) was 3.125 µM, the MIC (E. faecium 475747; E. faecium 475747, after 12 hours) was 11.6 µg/mL and the MIC (E. faecium DSM 20477; DSM 20477, 12 h) was 6.25 µM. For the same compound, the MIC (E. faecium DSM 20477; E. faecium DSM20477, after 12 hours) was 23.2 µg/mL, the MIC (K. pneumoniae 3-MRGN) was “>>>” and the MIC (K. pneumoniae DSM 30104; DSM 30104, 12 h) was 100 µM. It also gave an MIC (K. pneumoniae DSM 30104; K. pneumoniae DSM30104, after 12 hours) of 371.5 µg/mL, an MIC (P. aeruginosa 4-MRGN; 4-MRGN, 12 h) of 50 µM and an MIC (P. aeruginosa 4-MRGN; P. aeruginosa 4-MRGN, after 12 hours) of 185.8 µg/mL. For the same compound, the MIC (P. aeruginosa ATCC 27853; ATCC 27853, 12 h) was 6.25 µM, the MIC (P. aeruginosa ATCC 27853; P. aeruginosa ATCC 27853, after 12 hours) was 23.2 µg/mL and the MIC (P. aeruginosa PAO1; P. aeruginosa PAO1, after 12 hours) was 46.4 µg/mL. For the same compound, the MIC (P. aeruginosa PAO1; PAO1, 12 h) was 12.5 µM, the MIC (P. aeruginosa XPAT1; P. aeruginosa XPAT1, after 12 hours) was 46.4 µg/mL and the MIC (P. aeruginosa XPAT1; XPAT1, 12 h) was 12.5 µM. The MIC (P. aeruginosa XPAT2; P. aeruginosa XPAT2, after 12 hours) was 46.4 µg/mL, the MIC (P. aeruginosa XPAT2; XPAT2, 12 h) was 12.5 µM and the MIC (S. aureus ATCC 25923; ATCC 25923, 12 h) was 6.25 µM. For the same compound, the MIC (S. aureus ATCC 25923; S. aureus ATCC25923, after 12 hours) was 23.2 µg/mL, the MIC (S. aureus USA300; S. aureus USA300, after 12 hours) was 23.2 µg/mL and the MIC (S. aureus USA300; USA300, 12 h) was 6.25 µM. For the same compound, the MIC (Y. enterocolitica; 12 h) was 12.5 µM, the MIC (Y. enterocolitica; Y. enterocolitica, after 12 hours) was 46.4 µg/mL and the MIC (C. albicans 529L; 529L, 24 h) was 50 µM. For the same compound, the MIC (C. albicans 529L; C. albicans 529L, after 24 hours (Table 5)) was 185.8 µg/mL.

In the case of “CATRESLSGVCEISGRLY (listed as Homo sapiens) [HD-510-27, HD-5 fragment 10-27]”, the “antimicrobial activity” value (commensal bacteria) was “did not exhibit measurable activity” and the “antimicrobial activity” value (pathogenic bacteria) was “inactive”.

“LYRLCCR (listed as Homo sapiens) [HD-526-32, HD-5 fragment 26-32]” was tested, and the “antimicrobial activity” value (commensal bacteria) was “exhibited antimicrobial properties, albeit to a lesser extent than HD-51-9” and the “antimicrobial activity” value (pathogenic bacteria) was “only minimally active or more selective in terms of different strains”.
